Reference: the NIST ThermoML archive (doi:10.1016/j.fluid.2011.11.030)
± gives the expanded uncertainty stated by the source.

Conditions: 101.33 kPa, Liquid; for viscosity: Capillary tube (Ostwald / Ubbelohde) method; for mass density: Pycnometric method

Row | viscosity (298.15 K) [mPa·s] | mass density (298.15 K) [kg/m3] | viscosity (323.15 K) [mPa·s] | mass density (323.15 K) [kg/m3] | viscosity (348.15 K) [mPa·s] | mass density (348.15 K) [kg/m3] | viscosity (373.15 K) [mPa·s] | mass density (373.15 K) [kg/m3] | Compound
1 | 279.4 ± 29 | 1233 ± 2 | 79.8 ± 8.1 | 1215 ± 2 | 32.5 ± 3.3 | 1196 ± 2 | 15.3 ± 1.5 | 1176 ± 2 | CCCCCCCCn1cc[n+](C)c1.O=S(=O)([O-])C(F)(F)C(F)F
2 | 30.1 ± 3.2 | 1065 ± 3 | 13.5 ± 1.6 | 1050 ± 3 | 7.7 ± 1.1 | 1036 ± 3 | 4.9 ± 0.9 | 1026 ± 3 | CCCCn1cc[n+](C)c1.N#CN=C=[N-] [1-butyl-3-methylimidazolium dicyanamide]
3 | 205.5 ± 21 | 1185 ± 2 | 52.7 ± 5.3 | 1171 ± 2 | 21.3 ± 2.1 | 1154 ± 2 | 10.5 ± 1.1 | 1144 ± 2 | CCCC[n+]1ccc(C)cc1.F[B-](F)(F)F [1-butyl-4-methylpyridinium tetrafluoroborate]
